Source: patent US20240174618A1, “SUBSTITUTED (2-HETEROARYLOXYPHENYL)SULFONATES, SALTS THEREOF AND THEIR USE AS HERBICIDAL AGENTS” (Bayer Aktiengesellschaft, priority 2021, published 2024)

Experiments:
Type in all cases: in vivo
Avena fatua (AVEFA) = test: C. Herbicidal pre-emergence efficacy, AVEFA; conditions: 320 g/ha, scored after about 3 weeks
Source text: (§1) Seeds of monocotyledonous and dicotyledonous weed plants and crop plants were placed in plastic or organic planting pots and covered with soil. The compounds of the invention, formulated in the form of wettable powders (WP) or as emulsion concentrates (EC), were then applied to the surface of the covering soil as aqueous suspension or emulsion with addition of 0.5% additive at a water application rate equivalent to 600 l/ha (converted). After the treatment, the pots were placed in a greenhouse and kept under good growth conditions for the test plants. After about 3 weeks, the efficacy of the preparations was scored visually in comparison with untreated controls as percentages. For example, • 100% efficacy=plants have died, • 0% efficacy=like untreated control plants.
(§2) Tables C1a to C14b below show the effects of selected compounds of the general formula (I) according to table 1 on various harmful plants at an application rate corresponding to 320 g/ha or less, which were obtained by the experimental procedure mentioned above.

[1] = system: Abutilon theophrasti (ABUTH); test: B. Herbicidal post-emergence efficacy, ABUTH; conditions: rated visually after about 3 weeks
Procedure, shortened: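 Weeds grown in sandy loam in greenhouse and sprayed at the one-leaf stage, 2–3 weeks after sowing, with WP or EC formulations plus 0.5% additive at 600 L/ha water. Injury rated visually versus untreated controls after about 3 weeks (100% = dead, 0% = like control); rates up to 1280 g/ha.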

Zea mays (ZEAMX) [2] = test: F. Post-emergence effect on useful plants, ZEAMX; conditions: useful plant, application rate 80 g/ha
Procedure, shortened: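 Visual efficacy rating versus untreated plants, from 0% (no effect) to 100% (plants died), made about 3 weeks after post-emergence treatment. Formulated compounds (WP or EC, 0.5% additive, 600 l/ha water) were sprayed onto greenhouse-grown crops at the one-leaf stage, 2-3 weeks after sowing.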

[3] = system: Alopecurus myosuroides (ALOMY); test: B. Herbicidal post-emergence efficacy, ALOMY; conditions: rated visually after about 3 weeks
Experimental: Seeds of mono- and dicotyledonous weed plants were placed in plastic pots in sandy loam soil (doubly sown with in each case one species of mono- or dicotyledonous weed plants per pot), covered with soil and cultivated in a greenhouse under controlled growth conditions. 2 to 3 weeks after sowing, the test plants were treated at the one-leaf stage. The compounds of the invention, formulated in the form of wettable powders (WP) or as emulsion concentrates (EC), were applied onto the green parts of the plants as aqueous suspension or emulsion with addition of 0.5% additive at a water application rate of 600 liters per hectare (converted). After the test plants had been kept in the greenhouse under optimum growth conditions for about 3 weeks, the activity of the preparations was rated visually in comparison to untreated controls.
For example, • 100% efficacy=plants have died, • 0% efficacy=like untreated control plants
Tables B1a to B12c below show the effects of selected inventive compounds of the general formula (I) according to table 1 on various harmful plants at an application rate corresponding to 1280 g/ha or less, which were obtained by the experimental procedure mentioned above.

[4] = system: Matricaria inodora (MATIN); test: C. Herbicidal pre-emergence efficacy, MATIN; conditions: scored after about 3 weeks
Procedure, shortened: (§3)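 Pre-emergence test: formulated compounds sprayed as aqueous suspension or emulsion with 0.5% additive at 600 l/ha onto soil covering sown seeds, at rates corresponding to 320 g/ha or less. After about 3 weeks in greenhouse, efficacy scored visually as percent versus untreated controls (100% = plants dead).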

[5] = system: Pharbitis purpurea (PHBPU); test: C. Herbicidal pre-emergence efficacy, PHBPU; conditions: scored after about 3 weeks
Source text: as §1, §2

[6] = system: Alopecurus myosuroides (ALOMY); test: E. Herbicidal post-emergence efficacy, ALOMY
Experimental: (§4) Seeds of monocotyledonous and dicotyledonous weeds and crop plants were placed in sandy loam in plastic or organic planting pots, covered with soil and cultivated in a greenhouse under controlled growth conditions. 2 to 3 weeks after sowing, the test plants were treated at the one-leaf stage. The compounds of the invention, formulated in the form of wettable powders (WP) or as emulsion concentrates (EC), were then sprayed onto the green parts of the plants as aqueous suspension or emulsion with addition of 0.5% additive at a water application rate of 600 l/ha (converted). After the test plants had been kept in the greenhouse under optimum growth conditions for about 3 weeks, the activity of the preparations was rated visually in comparison to untreated controls.
(§5) For example, • 100% efficacy=plants have died, • 0% action=like untreated control plants.
(§6) Tables E1a to E12b below show the effects of selected compounds of the general formula (I) according to table 1 on various harmful plants at an application rate corresponding to 320 g/ha or less, which were obtained by the experimental procedure mentioned above.

Zea mays (ZEAMX) [7] = test: D. Pre-emergence effect on useful plants, ZEAMX; conditions: useful plant, application rate 80 g/ha
Procedure, shortened: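 Seeds sown in pots and covered with soil; WP or EC formulations sprayed on the soil surface as aqueous suspension/emulsion with 0.5% additive at 600 l/ha water. Plants grown in greenhouse; crop damage scored visually after about 3 weeks as % versus untreated controls (100% = dead, 0% = like control).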

[8] = system: Digitaria sanguinalis (DIGSA); test: E. Herbicidal post-emergence efficacy, DIGSA
Experimental: as §4, §5, §6

[9] = system: Digitaria sanguinalis (DIGSA); test: C. Herbicidal pre-emergence efficacy, DIGSA; conditions: scored after about 3 weeks
Procedure, shortened: as §3

Compound | Pre-emergence efficacy against AVEFA (Avena fatua (AVEFA)) | Post-emergence efficacy against ABUTH in % ([1]; 80 g/ha) | Post-emergence efficacy against ABUTH in % ([1]; 320 g/ha) | Post-emergence efficacy against ABUTH in % ([1]; 1280 g/ha) | Post-emergence efficacy against ZEAMX in % (Zea mays (ZEAMX) [2]) | Post-emergence efficacy against ALOMY in % ([3]; 320 g/ha) | Post-emergence efficacy against ALOMY in % ([3]; 1280 g/ha) | Pre-emergence efficacy against MATIN ([4]; 320 g/ha) | Pre-emergence efficacy against PHBPU ([5]; 320 g/ha) | Post-emergence efficacy against ALOMY in % ([6]; application rate 320 g/ha) | Pre-emergence efficacy against ZEAMX in % (Zea mays (ZEAMX) [7]) | Post-emergence efficacy against ALOMY in % ([6]; application rate 80 g/ha) | Post-emergence efficacy against DIGSA in % ([8]; application rate 80 g/ha) | Post-emergence efficacy against DIGSA in % ([8]; application rate 320 g/ha) | Pre-emergence efficacy against DIGSA ([9]; 80 g/ha) | Pre-emergence efficacy against DIGSA ([9]; 320 g/ha) | Pre-emergence efficacy against MATIN ([4]; 80 g/ha) | Pre-emergence efficacy against PHBPU ([5]; 80 g/ha)
O=S(=O)(CCCCl)Oc1ccccc1Oc1ncc(Cl)cn1 [Example I-2] | 100% | 100% | 100% | 100% | 20% | 90% | 90% | 100% | 90% | 90% |  |  |  |  |  |  |  | 
O=S(=O)(CCCCl)Oc1ccccc1Oc1ncc(F)cn1 [Example I-5] | 80% | 90% | 100% | 100% |  |  | 100% | 90% | 80% | 90% | 20% | 80% |  |  |  |  |  | 
O=S(=O)(CCC(F)(F)F)Oc1ccccc1Oc1ncc(Cl)cn1 [Example I-8] | 90% |  |  | 90% |  |  |  | 80% | 80% | 90% |  |  | 80% | 90% | 100% | 100% | 80% | 
O=S(=O)(CCCC(F)(F)F)Oc1ccccc1Oc1ncc(Cl)cn1 [Example I-10] | 90% | 90% | 90% | 90% |  |  |  | 100% | 100% | 100% |  | 90% | 90% | 90% | 100% | 100% | 90% | 100%
O=S(=O)(CCCCl)Oc1c(F)cccc1Oc1ncc(Cl)cn1 [Example I-14] | 80% | 90% | 100% | 100% |  | 100% | 100% |  |  | 90% |  |  |  |  |  |  |  | 
O=S(=O)(CC1CC1)Oc1ccccc1Oc1ncc(Cl)cn1 [Example I-23] | 90% |  | 90% | 100% | 20% | 90% | 90% | 100% | 80% | 80% | 0% |  |  | 100% | 100% | 100% |  | 
O=S(=O)(CCC(F)(F)F)Oc1c(F)cccc1Oc1ncc(Br)cn1 [Example I-40] | 100% |  |  |  |  |  |  | 80% | 100% | 90% |  |  | 80% | 100% | 100% | 100% |  | 
O=S(=O)(CCCC(F)(F)F)Oc1c(F)cccc1Oc1ncc(F)cn1 [Example I-42] | 100% | 100% | 100% | 100% |  | 100% | 100% | 100% | 100% | 100% |  | 90% | 90% | 90% | 100% | 100% | 90% | 100%
O=S(=O)(CCC(F)(F)F)Oc1c(F)cccc1Oc1ncc(F)cn1 [Example I-47] | 100% | 90% | 100% | 100% |  | 90% | 100% | 100% | 100% | 100% |  |  |  |  | 100% | 100% | 90% | 90%
O=S(=O)(CCC(F)(F)F)Oc1c(F)cccc1Oc1ncc(Cl)cn1 [Example I-48] | 100% | 90% | 90% | 90% | 0% |  | 90% | 100% | 100% | 100% | 0% |  |  | 100% | 100% | 100% | 100% | 100%
O=S(=O)(CC1CC(F)(F)C1)Oc1c(F)cccc1Oc1ncc(Cl)cn1 [Example I-53] | 80% | 90% | 90% | 90% |  | 90% | 90% | 90% | 100% | 100% |  | 90% | 90% | 90% | 100% | 100% |  | 100%
